Laboratory results as given in patent publication US7125964B2, “Purification of antigen-specific T cells” (Ortho-McNeil Pharmaceutical, Inc., priority 1996, dated 2006).
Read-outs that look alike come from different tables or passages of the source.

Tests used:
[1] = molecular target: 2C T cell receptor (2C TCR) on naive T cells purified from 2C TCR transgenic mice (mouse); assay: 2C T cells mixed with CD8+ T cells of naive B6 mouse (0.03%), adsorption on MHC class I-coated magnetic beads, 2 experiments
[2] = molecular target: 2C T cell receptor (2C TCR) on naive T cells purified from 2C TCR transgenic mice (mouse); assay: 2C T cells with MHC-coated magnetic beads, 4 h, flow cytofluorometry, forward versus side scatter
[3] = test system: 2C T cells; assay: Influence of temperature and CD8 on cell-bead complex formation, flow cytofluorometry; assay type: cell-based, mouse; settings: for CD8 dependence of cell capture: purified 2C T cells versus CD8^− 2C T cells, room temperature, 3 hours
Procedure: We used flow cytofluorometry analysis to quantitate the influence of various parameters on cell-bead complex formation. Attachment of cells to beads was time dependent. […] Kinetics of adsorption were remarkably parallel for various peptide-MHC complexes. At 4° C., only a small percentage of cells was captured on beads, even after prolonged incubation. […] ([…], 1996).

[4] = test system: 2C T cells; assay: Cell-bead complex formation, flow cytofluorometry, side scatter versus forward scatter dot plots; assay type: cell-based, mouse; settings: 4 hours of incubation
[5] = molecular target: T1, L^d (Mus musculus, UniProt P01897); settings: association constant; cited from earlier work
T1 sequence (P01897 25-298 limits assumed): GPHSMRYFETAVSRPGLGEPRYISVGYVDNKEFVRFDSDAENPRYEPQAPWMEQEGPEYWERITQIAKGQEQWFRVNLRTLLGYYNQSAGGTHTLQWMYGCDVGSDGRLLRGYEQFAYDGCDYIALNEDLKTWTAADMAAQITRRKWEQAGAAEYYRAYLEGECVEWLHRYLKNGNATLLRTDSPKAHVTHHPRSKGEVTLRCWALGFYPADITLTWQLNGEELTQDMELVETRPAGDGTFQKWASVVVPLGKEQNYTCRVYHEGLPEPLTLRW
T1 sequence (P01887 21-119 partner): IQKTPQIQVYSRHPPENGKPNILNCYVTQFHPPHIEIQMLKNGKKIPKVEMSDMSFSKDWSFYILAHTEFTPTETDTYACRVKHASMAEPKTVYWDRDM

[6] = test system: 2C TCR; settings: association constant, cited from earlier work; for 2C TCR affinity for L^d-peptide: Sykulev et al, 1994 a, b; for affinity of peptide-MHC complex for the 2C TCR: recently determined
[7] = test system: 2C T cells; assay: Cell-bead complex formation, flow cytofluorometry, green versus red fluorescence dot plots; assay type: cell-based, mouse; settings: L^d-coated beads, 20 μM peptide
[8] = test system: EL4 cells; assay type: cell-based, mouse
[9] = test system: 2C T cells; assay: Recovery of 2C T cells mixed with CD8^+ T cells from naive C57BL/6 mouse by adsorption on MHC class I-coated magnetic beads; assay type: cell-based; settings: for % 2C T cell after enrichment: 0.03% 2C T cells before enrichment
Procedure: T cell precursor frequencies in a naive animal are typically low. Magnetic beads have been found suitable in other systems to enrich low frequency cell populations (Sawada et al., 1990; Kato and Radbruch, 1993). To assess whether MHC class I-coated magnetic beads could be used for T cell precursor enrichment, we mixed fluorescein-labeled 2C T cells with CD8^+ T cells purified from naive C57BL/6 mice. After incubation with MHC-coated magnetic beads in the presence of peptide, adsorbed cells were eluted and counted, and the percentage of 2C T cells was determined by flow cytofluorometry. In the experiment shown in FIG. 5, 2C T cells were undetectable at the initial frequency of 0.03%. Following adsorption using K^bm3-coated beads and dEV-8 peptide, a definite peak of green fluorescence was observed, displaying the same intensity as the original fluorescein-stained 2C T cell population. This peak represented 65.1% of the eluted cells. No peak was observed when a control peptide was used instead of dEV-8. […] In all cases, the non-fluorescent cells in the eluted population represented only a minor fraction of the initial cell population (˜0.2%).

[10] = molecular target: 2C T cell receptor (2C TCR) on naive T cells purified from 2C TCR transgenic mice (mouse); assay: fluorescein-labeled 2C T cells with phycoerythrin-labeled L^d-coated beads, flow cytofluorometry, green versus red dot plots; laid by the filing to non-specific adsorption of cell debris
[11] = molecular target: 2C T cell receptor (2C TCR) on naive T cells purified from 2C TCR transgenic mice (mouse); assay: 2C T cells with MHC-coated magnetic beads, flow cytofluorometry, forward versus side scatter
[12] = molecular target: 2C T cell receptor (2C TCR) on naive T cells purified from 2C TCR transgenic mice (mouse); assay: fluorescein-labeled 2C T cells with phycoerythrin-labeled L^d-coated beads, flow cytofluorometry, green versus red dot plots
[13] = test system: 2C T cells; assay: Capture of 2C T cells on MHC-coated magnetic beads, microscopic examination; assay type: cell-based, mouse; settings: readout not stated
[14] = molecular target: 2C T cell receptor (2C TCR) on naive T cells purified from 2C TCR transgenic mice (mouse); assay: 2C T cells with MHC-coated magnetic beads, flow cytofluorometry, temperature dependence
[15] = molecular target: 2C T cell receptor (2C TCR) on naive T cells purified from 2C TCR transgenic mice (mouse); assay: 2C T cells mixed with CD8+ T cells of naive B6 mouse (0.03%), adsorption on MHC class I-coated magnetic beads, 3 experiments

With “K^b-SIYR complex on avidin-coated magnetic beads (from UniProt P01887 21-119; P01901 22-369) (peptide-MHC)” as the molecule, how does the 2C T cell recovery [1] read?
Its 2C T cell recovery is 56.8%.

And the % of cells adsorbed to beads [2]?
Its % of cells adsorbed to beads is 75.7%.

Which “CD8 dependence of cell capture” value [3] does the source give for LSPFPFDL [p2Ca] here?
The value was “most CD8-dependent”.

And the “percentage of cells adsorbed to beads (CO/CO+CE)” value (shortened to “percentage of cells adsorbed”) ([4]; L^d-coated beads)?
The value was 78.9%.

What about the “Peptide affinity for L^d” value [5] of the same molecule?
The value was 4e+06 M⁻¹.

And the “2C TCR affinity for L^d-peptide” value [6]?
The value was 2e+06 M⁻¹.

With RPQASGVYM [LCMV] as the molecule, how does the “percentage of cells complexed to beads (RG/G+RG)” value [7] read?
The value was 2.2%.

With RGYVYQGL [VSV-8] as the molecule, how does the “CTL activity of cells captured and cultured with the same peptide” value [8] read?
The value was “displayed a CTL activity specific for VSV-8”.

What about the “CTL precursors for the other peptide in captured cells” value [8] of the same molecule?
Its value is “no detectable anti-OVA-8 CTL precursors”.

Which results are given for YPHFMPTNL [MCMV, ID; NO.: 8]?
Peptide affinity for L^d [5]: 2e+09 M⁻¹; 2C TCR affinity for L^d-peptide [6]: <10^3 M^−1

What does the source list for QLSPFPFDL [QL9]?
CD8 dependence of cell capture [3]: CD8 independent; percentage of cells adsorbed to beads (CO/CO+CE) ([4]; L^d-coated beads): 91.0%; Peptide affinity for L^d [5]: 2e+08 M⁻¹; 2C T cell enrichment ([9]; L^d-coated beads): 828 ± 230 fold; % 2C T cell after enrichment ([9]; L^d-coated beads): 24.8 ± 6.9%; 2C TCR affinity for L^d-peptide [6]: 10^7 M^−1

Which “attachment levels at 37° C. relative to values measured at room temperature” value ([3]; 37° C. versus room temperature) does the source give for “L^d-p2Ca: complex of L^d with peptide p2Ca” here?
Its value is “about 25%”.

What about the “CD8 dependence of cell capture” value [3] of the same molecule?
The value was “exhibited CD8 dependence”.

For “L^d-LCMV complex on avidin-coated magnetic beads (from UniProt P01887 21-119; P01897 25-362) (peptide-MHC)”, which % red and green colored events [10] is on record?
The % red and green colored events was 2.2%.

What about the % of events in the complex region [11] of the same molecule?
The % of events in the complex region was 2.6%.

For SIINFEKL [OVA-8, ID; NO.: 9], which “CTL activity of cells captured and cultured with the same peptide” value ([8]; K^b-coated beads, naive C57BL/6 CD8^+ T cells, tested at day 18, peptides 1 μM) is on record?
The value was “displayed a CTL activity specific for OVA-8 peptide”.

And the “CTL precursors for the other peptide in captured cells” value ([8]; reverse combination: captured with one peptide, activated in culture with the other)?
The value was “no detectable anti-VSV-8 CTL precursors”.

With “L^d-SL9 complex on avidin-coated magnetic beads (from UniProt P01887 21-119; P01897 25-362) (peptide-MHC)” as the molecule, how does the % of cells complexed to beads [12] read?
Its % of cells complexed to beads is > 85%.

What does the source list for “K^b-SIYR: complex of K^b with peptide SIYR”?
capture of 2C T cells observed or not [13]: consistently observed capture; affinity of peptide-MHC complex for the 2C TCR [6]: 31000 M⁻¹

For “L^d-QL9: complex of MHC class I molecule L^d with peptide QL9”, which “CD8 dependence of cell capture” value [3] is on record?
Its value is “largely CD8 independent”.

With SIYRYYGL as the molecule, how does the “CD8 dependence of cell capture” value [3] read?
The value was “CD8 independent”.

And the “percentage of cells adsorbed” value ([4]; K^b-coated beads)?
Its value is 75.7%.

And the “2C T cell enrichment” value ([9]; K^b-coated beads)?
The value was 1588 ± 71 fold.

What about the “% 2C T cell after enrichment” value ([9]; K^b-coated beads) of the same molecule?
The value was 47.6 ± 2.1%.

Which “capture of 2C T cells observed or not” value [13] does the source give for “K^b-dEV-8: complex of K^b with peptide dEV-8” here?
Its value is “not”.

What about the “affinity of peptide-MHC complex for the 2C TCR” value (from here on “affinity of peptide-MHC complex”) [6] of the same molecule?
The value was 12000 M⁻¹.

What does the source list for “L^d-p2Ca complex on avidin-coated magnetic beads (from UniProt P01887 21-119; P01897 25-362) (peptide-MHC)”?
attachment level at 37° C. against the value at room temperature [14]: 25%; % of cells adsorbed to beads [2]: 78.9%; % of cells complexed to beads [12]: > 85%

For SPFPFDLLL [SL9, ID; NO.: 3], which “Peptide affinity for L^d” value [5] is on record?
The value was 4e+07 M⁻¹.

What about the “2C TCR affinity for L^d-peptide” value [6] of the same molecule?
Its value is 14000 M⁻¹.

With “L^d-QL9 complex on avidin-coated magnetic beads (from UniProt P01887 21-119; P01897 25-362) (peptide-MHC)” as the molecule, how does the 2C T cell recovery [15] read?
Its 2C T cell recovery is 90%.

What about the % of cells adsorbed to beads [2] of the same molecule?
The % of cells adsorbed to beads was 91%.

And the % of cells complexed to beads [12]?
The % of cells complexed to beads was > 85%.

Which “capture of 2C T cells observed or not” value [13] does the source give for “L^d-p2Ca-A3: complex of L^d with peptide p2Ca-A3” here?
The value was “not”.

What about the “affinity of peptide-MHC complex” value [6] of the same molecule?
Its value is 20000 M⁻¹.

Which results are given for “K^bm3-dEV-8 complex on avidin-coated magnetic beads (from UniProt P01887 21-119) (peptide-MHC)”?
2C T cell recovery [1]: 47.7%; % of cells adsorbed to beads [2]: 63.8%

What does the source list for EQYKFYSV [dEV-8, ID; NO.: 5]?
CD8 dependence of cell capture [3]: most CD8-dependent; percentage of cells adsorbed to beads (CO/CO+CE) ([4]; K^bm3-coated beads): 63.8%; 2C T cell enrichment ([9]; K^bm3-coated beads): 1697 ± 473 fold; % 2C T cell after enrichment ([9]; K^bm3-coated beads): 50.9 ± 14.2%

For “L^d-SL9: complex of L^d with peptide SL9”, which “affinity of peptide-MHC complex” value [6] is on record?
Its value is 14000 M⁻¹.

B1: K^b-E1: non-2C reactive complex of K^b with peptide E1 (protein)
MHC heavy: GPHSLRYFVTAVSRPGLGEPRYMEVGYVDDTEFVRFDSDAENPRYEPRARWMEQEGPEYWERETQKAKGNEQSFRVDLRTLLGYYNQSKGGSHTIQVISGCEVGSDGRLLRGYQQYAYDGCDYIALNEDLKTWTAADMAALITKHKWEQAGEAERLRAYLEGTCVEWLRRYLKNGNATLLRTDSPKAHVTHHSRPEDKVTLRCWALGFYPADITLTWQLNGEELIQDMELVETRPAGDGTFQKWASVVVPLGKEQYYTCHVYHQGLPEPLTLRWEPPPSTVSNMATVAVLVVLGAAIVTGAVVAFVMKMRRRNTGGKGGDYALAPGSQTSDLSLPDCKVMVHDPHSLA
b2m: IQKTPQIQVYSRHPPENGKPNILNCYVTQFHPPHIEIQMLKNGKKIPKVEMSDMSFSKDWSFYILAHTEFTPTETDTYACRVKHASMAEPKTVYWDRDM
peptide: EIINFEKL
Which “percentage of cells adsorbed” value ([4]; K^b-coated beads) does the source give for B1 here?
Its value is 0.2%.
